This assay deals with T1, human urinary ACE (angiotensin converting enzyme) (Homo sapiens, UniProt P12821).
T1 construct: The enzyme preparation was ACE purified from human urine; from tissue; host or cells: human urine (enzyme purified as described by Ryan, J.W., et al., Tissue and Cell 10, 555 (1978))
The assay can be described thus: ACE activity assay (inhibition of hydrolysis of [3H]-Benzoyl-GlyHisLeu). Format: biochemical. The settings on record: read-out: I50. The procedure:
These factors include the source of enzyme, its purity, the substrate used and its concentration, and the composition of the assay buffer.
ACE activity assay. […] To initiate the assay, 40 μl of enzyme and 10 μl of water or inhibitor dissolved in water were preincubated for five minutes at 37° C. […] To terminate the reaction, 1 ml of 0.1M HCl was added, following which 1 ml of ethyl acetate was added. The mixture was agitated on a rotary mixer and centrifuged briefly to separate the phases.
An aliquot, 500 μl, of the ethyl acetate layer was transferred to a liquid scintillation vial containing 10 ml of Riafluor, trademark New England Nuclear Corporation, Boston, Mass. For determination of I50 values, enzyme activity in the presence of inhibitor at a series of different concentrations was compared to activity in the absence of inhibitor.

IC50 data for one compound are collected here from US4698356A, “Anti-hypertensive agents” (University of Miami, priority 1979, dated 1987).

Structures are written as SMILES.

T1 sequence (P12821 30-1232 limits assumed): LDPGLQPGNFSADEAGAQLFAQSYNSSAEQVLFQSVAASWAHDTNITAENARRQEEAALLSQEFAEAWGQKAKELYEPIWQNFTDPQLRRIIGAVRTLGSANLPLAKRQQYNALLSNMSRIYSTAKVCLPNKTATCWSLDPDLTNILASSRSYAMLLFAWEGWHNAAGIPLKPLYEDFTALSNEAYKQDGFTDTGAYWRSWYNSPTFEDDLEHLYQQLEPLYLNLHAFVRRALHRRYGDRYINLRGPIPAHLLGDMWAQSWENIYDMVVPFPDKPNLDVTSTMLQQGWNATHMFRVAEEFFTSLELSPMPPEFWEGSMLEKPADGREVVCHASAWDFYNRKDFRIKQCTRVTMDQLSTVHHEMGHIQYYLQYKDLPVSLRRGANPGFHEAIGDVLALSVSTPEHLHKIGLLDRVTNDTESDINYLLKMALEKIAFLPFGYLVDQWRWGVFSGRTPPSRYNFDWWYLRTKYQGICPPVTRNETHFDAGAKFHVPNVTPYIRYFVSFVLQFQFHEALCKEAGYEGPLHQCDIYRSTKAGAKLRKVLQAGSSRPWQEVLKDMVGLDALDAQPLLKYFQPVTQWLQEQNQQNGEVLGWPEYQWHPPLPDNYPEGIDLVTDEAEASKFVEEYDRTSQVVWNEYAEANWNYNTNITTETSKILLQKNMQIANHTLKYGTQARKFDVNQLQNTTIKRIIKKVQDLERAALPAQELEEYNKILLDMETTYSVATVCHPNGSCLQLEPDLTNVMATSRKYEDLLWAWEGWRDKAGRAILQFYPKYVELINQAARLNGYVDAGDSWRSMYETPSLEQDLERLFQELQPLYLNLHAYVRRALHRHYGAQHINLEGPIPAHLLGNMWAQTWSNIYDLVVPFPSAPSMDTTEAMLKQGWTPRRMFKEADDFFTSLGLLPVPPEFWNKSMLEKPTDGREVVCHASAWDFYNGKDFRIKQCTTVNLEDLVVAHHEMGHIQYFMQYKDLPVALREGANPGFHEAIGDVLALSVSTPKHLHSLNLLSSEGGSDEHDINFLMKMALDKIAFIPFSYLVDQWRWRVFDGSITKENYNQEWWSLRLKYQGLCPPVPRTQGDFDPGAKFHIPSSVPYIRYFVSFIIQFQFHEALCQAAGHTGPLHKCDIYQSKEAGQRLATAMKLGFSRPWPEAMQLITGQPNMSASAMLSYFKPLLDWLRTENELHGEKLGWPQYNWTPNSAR

Regarding `C[C@H](CSC(=O)[C@@H](N)Cc1ccccc1)C(=O)N1CCC[C@H]1C(=O)O` [Example 14, N^α -(3-L-phenylalanylthio-2-D-methylpropanoyl)-L-proline], the IC50 was found to be 8.8 nM.
